Source: ChEMBL document CHEMBL1201862, “PubChem BioAssay data set” (2004)
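Results reflect a 48-hour exposure of cells in 96-well plates to compound at five concentrations. At the GI50, growth is halved.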 Active and inactive are the calls of the source. Rule as the data show it: active = GI50 up to about 1.1 µM and inactive = higher.

Tests used:
Experiment in all cases: inhibition of tumour cell growth, NCI panel, 48 h
UACC-257 = system: UACC-257
NCI-H23 = system: NCI-H23
SK-MEL-5 = system: SK-MEL-5
HCC 2998 = system: HCC 2998
LXFL 529 = system: LXFL 529
RXF 393 = system: RXF 393
NCI-H522 = system: NCI-H522
HT-29 = system: HT-29
SK-OV-3 = system: SK-OV-3
A549 = system: A549
SNB-78 = system: SNB-78
COLO 205 = system: COLO 205
EKVX = system: EKVX
Malme-3M = system: Malme-3M
DMS-114 = system: DMS-114
A498 = system: A498
HL-60 = system: HL-60
SNB-19 = system: SNB-19
HOP-92 = system: HOP-92
M19-MEL = system: M19-MEL
RXF 631 = system: RXF 631
SNB-75 = system: SNB-75
SF-539 = system: SF-539
DLD-1 = system: DLD-1
M14 = system: M14
SW-620 = system: SW-620
RPMI-8226 = system: RPMI-8226
U-251 = system: U-251
HOP-62 = system: HOP-62
K562 = system: K562
TK-10 = system: TK-10
KM-20L2 = system: KM-20L2
NCI-H460 = system: NCI-H460
OVCAR-3 = system: OVCAR-3
ACHN = system: ACHN
MOLT-4 = system: MOLT-4
786-0 = system: 786-0
LOX IMVI = system: LOX IMVI
HCT-116 = system: HCT-116
IGROV-1 = system: IGROV-1
UACC-62 = system: UACC-62
CCRF-CEM = system: CCRF-CEM
UO-31 = system: UO-31
KM12 = system: KM12
SK-MEL-28 = system: SK-MEL-28
OVCAR-5 = system: OVCAR-5
SK-MEL-2 = system: SK-MEL-2
OVCAR-8 = system: OVCAR-8

Measured: GI50

COC(=O)C(CC(C)C)NC(=O)NC12CC3CC(CC(F)(C3)C1)C2 (stereo not drawn)
inactive: UACC-257 > 100 µM | NCI-H23 > 100 µM | SK-MEL-5 > 100 µM | HCC 2998 29.3 µM | LXFL 529 > 100 µM | RXF 393 > 100 µM | NCI-H522 > 100 µM | HT-29 > 100 µM | SK-OV-3 > 100 µM | A549 > 100 µM | SNB-78 > 100 µM | COLO 205 > 100 µM | EKVX > 100 µM | Malme-3M > 100 µM | DMS-114 > 100 µM | A498 > 100 µM | HL-60 > 100 µM | SNB-19 > 100 µM | HOP-92 50.6 µM | M19-MEL > 100 µM | RXF 631 > 100 µM | SNB-75 27.1 µM | SF-539 > 100 µM | DLD-1 > 100 µM | M14 > 100 µM | SW-620 > 100 µM | RPMI-8226 > 100 µM | U-251 > 100 µM | HOP-62 > 100 µM | K562 > 100 µM | TK-10 > 100 µM | KM-20L2 > 100 µM | NCI-H460 > 100 µM | OVCAR-3 > 100 µM | ACHN > 100 µM | MOLT-4 > 100 µM | 786-0 > 100 µM | LOX IMVI > 100 µM | HCT-116 > 100 µM | IGROV-1 > 100 µM | UACC-62 > 100 µM | CCRF-CEM > 100 µM | UO-31 46.6 µM | KM12 > 100 µM | SK-MEL-28 > 100 µM | OVCAR-5 > 100 µM | SK-MEL-2 > 100 µM | OVCAR-8 > 100 µM
